From PubChem BioAssay AID2060499 (Molecular Pharmacology Branch, DTP, NCI, 2025)

Test system: 777334-354-R2-J4-PDC tumor spheroids with HUVEC/MSC, viability
Test: Anticancer human tumor 777334-354-R2-J4-PDC patient-derived pancreatic adenocarcinoma cell line growth inhibition [GQUAD]
Conditions: for IC50: curve of first compound; for viability, T/C: stronger effect = lower value
How it was run: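 Tumor cells were grown as complex spheroids with HUVEC endothelial cells and mesenchymal stem cells as stroma. G-quadruplex stabilizers were combined with targeted agents over half-log dilutions from near the clinical Cmax, or from 10 microM.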

[1] = second compound 0.0316 µM, first compound 0.0316 µM
[2] = second compound 0.0316 µM, first compound 0.1 µM
[3] = second compound 0.0316 µM, first compound 0.316 µM
[4] = second compound 0.0316 µM, first compound 1 µM
[5] = second compound 0.0316 µM, first compound 3.16 µM
[6] = second compound 0.0316 µM, first compound 10 µM
[7] = second compound 0.1 µM, first compound 0.0316 µM
[8] = second compound 0.1 µM, first compound 0.1 µM
[9] = second compound 0.1 µM, first compound 0.316 µM
[10] = second compound 0.1 µM, first compound 1 µM
[11] = second compound 0.1 µM, first compound 3.16 µM
[12] = second compound 0.1 µM, first compound 10 µM
[13] = second compound 0.316 µM, first compound 0.0316 µM
[14] = second compound 0.316 µM, first compound 0.1 µM
[15] = second compound 0.316 µM, first compound 0.316 µM
[16] = second compound 0.316 µM, first compound 1 µM
[17] = second compound 0.316 µM, first compound 3.16 µM
[18] = second compound 0.316 µM, first compound 10 µM
[19] = second compound 1 µM, first compound 0.0316 µM
[20] = second compound 1 µM, first compound 0.1 µM
[21] = second compound 1 µM, first compound 0.316 µM
[22] = second compound 1 µM, first compound 1 µM
[23] = second compound 1 µM, first compound 3.16 µM
[24] = second compound 1 µM, first compound 10 µM
[25] = second compound 3.16 µM, first compound 0.0316 µM
[26] = second compound 3.16 µM, first compound 0.1 µM
[27] = second compound 3.16 µM, first compound 0.316 µM
[28] = second compound 3.16 µM, first compound 1 µM
[29] = second compound 3.16 µM, first compound 3.16 µM
[30] = second compound 3.16 µM, first compound 10 µM
[31] = second compound 10 µM, first compound 0.0316 µM
[32] = second compound 10 µM, first compound 0.1 µM
[33] = second compound 10 µM, first compound 0.316 µM
[34] = second compound 10 µM, first compound 1 µM
[35] = second compound 10 µM, first compound 3.16 µM
[36] = second compound 10 µM, first compound 10 µM
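Note: spheroids exposed to compounds for 7 days before readout.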

SMILES: C#Cc1c(F)ccc2cc(O)cc(-c3ncc4c(N5CC6CCC(C5)N6)nc(OCC56CCCN5CC(F)C6)nc4c3F)c12 (stereo unspecified) + Cc1cnc(CNC(=O)c2c(=O)c3ccc(N4CCCN(C)CC4)nc3n3c2sc2ccccc23)cn1
- IC50 (second compound 0.0316 µM): < 31.6 nM
- IC50 (second compound 0.1 µM): < 31.6 nM
- IC50 (second compound 0.316 µM): < 31.6 nM
- IC50 (second compound 1 µM): < 31.6 nM
- IC50 (second compound 3.16 µM): < 31.6 nM
- IC50 (second compound 10 µM): < 31.6 nM
- viability, T/C [1]: 49.7%
- viability, T/C [2]: 38.7%
- viability, T/C [3]: 31.4%
- viability, T/C [4]: 31.6%
- viability, T/C [5]: 27.1%
- viability, T/C [6]: 24.2%
- viability, T/C [7]: 45.1%
- viability, T/C [8]: 34.4%
- viability, T/C [9]: 30.9%
- viability, T/C [10]: 26.4%
- viability, T/C [11]: 23.5%
- viability, T/C [12]: 21.3%
- viability, T/C [13]: 39.6%
- viability, T/C [14]: 33.8%
- viability, T/C [15]: 28.8%
- viability, T/C [16]: 25.6%
- viability, T/C [17]: 22.6%
- viability, T/C [18]: 19.9%
- viability, T/C [19]: 36.2%
- viability, T/C [20]: 29.4%
- viability, T/C [21]: 31.1%
- viability, T/C [22]: 23.6%
- viability, T/C [23]: 21.9%
- viability, T/C [24]: 19.4%
- viability, T/C [25]: 28%
- viability, T/C [26]: 25.5%
- viability, T/C [27]: 22.8%
- viability, T/C [28]: 19.2%
- viability, T/C [29]: 17.5%
- viability, T/C [30]: 14.4%
- viability, T/C [31]: 22%
- viability, T/C [32]: 16.7%
- viability, T/C [33]: 15%
- viability, T/C [34]: 8.71%
- viability, T/C [35]: 8.87%
- viability, T/C [36]: 3.17%

SMILES: O=C(NO)c1cnc(N2CCN(S(=O)(=O)c3ccc4ccccc4c3)CC2)nc1 + Cc1cnc(CNC(=O)c2c(=O)c3ccc(N4CCCN(C)CC4)nc3n3c2sc2ccccc23)cn1
- IC50 (second compound 0.0316 µM): 726 nM
- IC50 (second compound 0.1 µM): 332 nM
- IC50 (second compound 0.316 µM): 537 nM
- IC50 (second compound 1 µM): 474 nM
- IC50 (second compound 3.16 µM): 331 nM
- IC50 (second compound 10 µM): < 31.6 nM
- viability, T/C [1]: 83.7%
- viability, T/C [2]: 71.9%
- viability, T/C [3]: 77.2%
- viability, T/C [4]: 39.7%
- viability, T/C [5]: 3.07%
- viability, T/C [6]: 0.21%
- viability, T/C [7]: 90.3%
- viability, T/C [8]: 63.1%
- viability, T/C [9]: 55.2%
- viability, T/C [10]: 36.6%
- viability, T/C [11]: 5.24%
- viability, T/C [12]: 0.33%
- viability, T/C [13]: 69.3%
- viability, T/C [14]: 72%
- viability, T/C [15]: 53.8%
- viability, T/C [16]: 42.7%
- viability, T/C [17]: 5.34%
- viability, T/C [18]: 0.23%
- viability, T/C [19]: 65.6%
- viability, T/C [20]: 60%
- viability, T/C [21]: 55%
- viability, T/C [22]: 37.7%
- viability, T/C [23]: 4.8%
- viability, T/C [24]: 0.13%
- viability, T/C [25]: 49%
- viability, T/C [26]: 53.8%
- viability, T/C [27]: 50.2%
- viability, T/C [28]: 31.5%
- viability, T/C [29]: 0.68%
- viability, T/C [30]: 0.12%
- viability, T/C [31]: 50.2%
- viability, T/C [32]: 44.8%
- viability, T/C [33]: 48.4%
- viability, T/C [34]: 0.22%
- viability, T/C [35]: 2.65%
- viability, T/C [36]: 0.22%

SMILES: C=CC(=O)N1CCN(c2nc(=O)n(-c3c(C)ccnc3C(C)C)c3nc(-c4c(O)cccc4F)c(F)cc23)C(C)C1 (stereo unspecified) + CN(C)c1ccc(Nc2c3ccc(NC(=O)CCN4CCCC4)cc3nc3cc(NC(=O)CCN4CCCC4)ccc23)cc1
- IC50 (second compound 0.0316 µM): > 10000 nM
- IC50 (second compound 0.1 µM): > 10000 nM
- IC50 (second compound 0.316 µM): > 10000 nM
- IC50 (second compound 1 µM): > 10000 nM
- IC50 (second compound 3.16 µM): > 10000 nM
- IC50 (second compound 10 µM): > 10000 nM
- viability, T/C [1]: 102%
- viability, T/C [2]: 97%
- viability, T/C [3]: 115%
- viability, T/C [4]: 100%
- viability, T/C [5]: 116%
- viability, T/C [6]: 118%
- viability, T/C [7]: 89.5%
- viability, T/C [8]: 95.1%
- viability, T/C [9]: 104%
- viability, T/C [10]: 128%
- viability, T/C [11]: 120%
- viability, T/C [12]: 107%
- viability, T/C [13]: 98.2%
- viability, T/C [14]: 109%
- viability, T/C [15]: 103%
- viability, T/C [16]: 113%
- viability, T/C [17]: 106%
- viability, T/C [18]: 109%
- viability, T/C [19]: 92.8%
- viability, T/C [20]: 86.7%
- viability, T/C [21]: 94.2%
- viability, T/C [22]: 105%
- viability, T/C [23]: 115%
- viability, T/C [24]: 97.7%
- viability, T/C [25]: 84.6%
- viability, T/C [26]: 87.2%
- viability, T/C [27]: 90.5%
- viability, T/C [28]: 107%
- viability, T/C [29]: 112%
- viability, T/C [30]: 95%
- viability, T/C [31]: 76.7%
- viability, T/C [32]: 76.3%
- viability, T/C [33]: 84%
- viability, T/C [34]: 90.5%
- viability, T/C [35]: 99.5%
- viability, T/C [36]: 75.5%
